Measured values published in paper PMC11033320, “Activation of p53 signaling and regression of breast and prostate carcinoma cells by spirooxindole-benzimidazole small molecules” (Frontiers in Pharmacology, 2024).

Legend:
[1] = test system: p53; assay: Immunohistochemical detection of p53 in MDA-MB 231 cells; type: cell-based, human; settings: MDA-MB 231, 72 h, compared to untreated cells
Protocol: (§1) After trypsinization, the untreated and treated MDA-MB231 cells were centrifuged and washed with PBS buffer and then 10% formalin in PBS was added to cell pellets. The fixed cell specimens were dehydrated in ascending grades of alcohol and immersed in xylene for one hour (three times) followed by impregnation in melted paraffin to from solid paraffin blocks. Then a rotator microtome was used to cut each block into 3-5 μm thick sections that were transferred into positively charge slides. Slides were dried at 60-70°C for 1-2 h then dewaxed by immersion in xylene 3 times and rehydrated in descending grading ethanol. After that slides were incubated in 3% H2O2 for 10 min, washed in PBS buffer twice for 3 min and put in 10 mM citrate buffer […] followed by heating for 10-20 min. After cooling and washing in PBS, slides were separately soaked overnight in primary antibodies (anti-Ki-67 and anti-p53). Slides were washed in PBS, covered with biotinylated goat anti-polyvalent secondary antibody for 10 min and then streptavidin peroxidase was added. After 10 min, substrate of secondary antibody (3,3'-diaminobenzidine) was added followed by washing in PBS and placing in hematoxylin bath for 1-4 min then washing in PBS (1 min) and water (3 min). Percentage of immunostained cells was evaluated by imaging analysis cellSens software of phase contrast microscope (Olympus, Japan).

[2] = test system: human p53 transcription factor; assay: p53 transcription factor activity assay in MDA-MB 231 cells; type: cell-based; settings: treated MDA-MB 231 cells relative to the untreated cells
Protocol: The relative fold activation of p53 in the treated MDA-MB 231 cells were quantified using human p53 transcription factor activity assay kit (RayBio, USA). Briefly, 100 µl of lysates of the untreated and treated MDA-MB 231 cells were added to p53 probe-coated 96 wells and incubated for 2 h (these oligonucleotides capture the active p53 in cell lysate). After washing for discarding unbound p53, primary antibody was added to bound p53-DNA complex, incubated for 1 h. Each well was washed then peroxidase-conjugated secondary antibody was added and incubated for 1 h. After washing and incubating with substrate for 30 min, the absorbance was measured at 450 nm.

[3] = test system: NF-κB; assay: Real time PCR NF-κB gene expression in MDA-MB 231 cells; settings: treated MDA-MB 231 cells compared to untreated cells
[4] = test system: Ki-67; assay: Immunohistochemical detection of Ki-67 in MDA-MB 231 cells; type: cell-based, human; settings: MDA-MB 231, 72 h; untreated 82.425%
Protocol: as §1

[5] = test system: cyclin D; assay: Real time PCR cyclin D gene expression in MDA-MB 231 cells; settings: treated MDA-MB 231 cells compared to untreated cells
[6] = test system: p21; assay: Real time PCR p21 gene expression in MDA-MB 231 cells; settings: treated MDA-MB 231 cells compared to untreated cells
[7] = test system: CNS cancer cells (SF-268, SF-295, SF-539, SNB-19, SNB-75, U251); assay: NCI anticancer screening, CNS cancer subpanel; type: cell-based, human
Text: The compound has been processed according to standard method NCI-60 Human Tumor Cell Lines Screen for organic compound at development therapeutic program (DTP). Requests for access to this national resource can be submitted online at: […]

Structure (SMILES) | increase of protein level of p53 [1] | fold activation of p53 transcription factor [2] | expression level of NF-κB [3] | Ki-67 level (positive immunostaining cells) [4] | expression level of cyclin D [5] | upregulation of p21 expression [6] | growth inhibition in CNS cancer cells [7]
O=C(c1nc2ccccc2[nH]1)[C@H]1[C@H](c2ccccc2)C2CSCN2[C@]12C(=O)Nc1ccccc12 (mixture of isomers) [Compound 6a, (3S,6′R)-6'-(1H-benzo [d]imidazole-2-carbonyl)-7′-phenyl-3′,6′,7′,7a′-tetrahydro-1′H-spiro [indoline-3.5′-pyrrolo [1,2-c]thiazol]-2-one] | 60.2% | 5.983 ± 0.142 fold | downregulating | 1.18% | downregulating |  | 
Cc1ccc([C@@H]2C3CSCN3[C@]3(C(=O)Nc4ccccc43)[C@H]2C(=O)c2nc3ccccc3[nH]2)cc1 (mixture of isomers) [Compound 6d, (3S,6′R)-6'-(1H-Benzo [d]imidazole-2-carbonyl)-7'-(p-tolyl)-3′,6′,7′,7a′-tetrahydro-1′H-spiro [indoline-3.5′-pyrrolo [1,2-c]thiazol]-2-one] | 54.7% | 6.287 ± 0.254 fold | downregulating | 3.03% | downregulating | greater than three times | 
O=C(c1nc2ccccc2[nH]1)[C@H]1[C@H](c2ccc(Cl)cc2Cl)C2CSCN2[C@]12C(=O)Nc1ccccc12 (stereo partly drawn) [Compound 6g, (3S,6′R)-6'-(1H-Benzo [d]imidazole-2-carbonyl)-7'-(2,4-dichlorophenyl)-3′,6′,7′,7a′-tetrahydro-1′H-spiro [indoline-3.5′-pyrrolo [1,2-c]thiazol]-2-one] |  |  |  |  |  |  | less than 80%
O=C(c1nc2ccccc2[nH]1)[C@H]1[C@H](c2ccc(Br)cc2)C2CSCN2[C@]12C(=O)Nc1ccccc12 (stereo partly drawn) [Compound 6l, (3S,6′R)-6'-(1H-Benzo [d]imidazole-2-carbonyl)-7'-(4-bromophenyl)-3′,6′,7′,7a′-tetrahydro-1′H-spiro [indoline-3.5′-pyrrolo [1,2-c]thiazol]-2-one] |  |  |  |  |  |  | less than 80%
